Test results from PubChem BioAssay AID1259321 (Sanford-Burnham Center for Chemical Genomics, 2017).
Calls of active or inactive are those of the source.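 Rule for the calls: active = half-maximal concentration for changing protein binding to DNA, from the fitted dose curve, below 10 micromolar; inactive = the rest.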

The compounds below were run against Nuclear receptor subfamily 1 group D member 1 (Homo sapiens) (UniProt P20393) (assay: modulators of Rev-erb alpha DNA binding, dose response, biochemical, FITC-DNA, fluorescence polarization (AID 1259321)).
Nuclear receptor subfamily 1 group D member 1 (Homo sapiens), sequence (P20393 whole entry, looked up): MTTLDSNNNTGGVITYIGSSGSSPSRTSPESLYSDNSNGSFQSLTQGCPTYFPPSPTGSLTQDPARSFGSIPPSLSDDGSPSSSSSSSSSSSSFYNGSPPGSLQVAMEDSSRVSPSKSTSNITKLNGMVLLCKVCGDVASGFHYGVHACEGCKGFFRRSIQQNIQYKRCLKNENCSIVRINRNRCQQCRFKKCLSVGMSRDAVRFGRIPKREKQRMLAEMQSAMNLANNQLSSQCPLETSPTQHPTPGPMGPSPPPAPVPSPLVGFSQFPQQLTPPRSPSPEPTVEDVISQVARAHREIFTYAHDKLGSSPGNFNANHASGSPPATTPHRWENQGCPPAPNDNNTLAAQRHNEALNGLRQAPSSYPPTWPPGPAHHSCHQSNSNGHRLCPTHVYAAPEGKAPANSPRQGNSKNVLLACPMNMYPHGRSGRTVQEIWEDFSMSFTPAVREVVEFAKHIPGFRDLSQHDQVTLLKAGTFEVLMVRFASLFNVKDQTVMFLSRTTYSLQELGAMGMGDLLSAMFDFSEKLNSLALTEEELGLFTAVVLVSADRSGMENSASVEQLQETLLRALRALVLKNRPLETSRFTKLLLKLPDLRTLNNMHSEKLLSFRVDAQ

SMILES	IC50
COc1cccc(-n2nnnc2SCC(=O)Nc2ccc3c(c2)OCCO3)c1	inactive
CCCSc1nc(SCC(=O)NCc2ccccc2)c2c3c(sc2n1)COC(C)(CC)C3 (centres undefined)	> 40 µM (inactive)
Cc1[nH]c2ccccc2c1/C=C/c1cc[n+](C)cc1	4.41 µM
O=C(CSc1nc2ccccc2nc1N1CCCCC1)N1CCN(S(=O)(=O)c2cc(Cl)ccc2Cl)CC1	4.85 µM
COc1cccc(CNC(=O)C[C@H]2CC[C@H]3[C@@H](COc4ccc(NC(=O)c5cccs5)cc4C(=O)N3C)O2)c1	7.17 µM
CCC(=O)c1ccc(OCc2ccc(C(=O)c3ccccc3)cc2)cc1	3.02 µM
CCCC1(c2ccccc2)NC(=O)N(CC(=O)Nc2sc(-c3ccccc3)cc2C(=O)OCC)C1=O (centres undefined)	inactive
N#CC(C#N)=C1C=C2C=C(N3CCCCCC3)CCC2CC1 (centres undefined)	4.8 µM
N#CC1=C(SCC(N)=O)NC2=C(C(=O)c3ccccc32)C1c1ccc(Cl)cc1 (centres undefined)	7.01 µM
Cc1c(C2N3CC4(C)CN2CC(C)(C3)C4=O)c2ccccc2n1C (centres undefined)	inactive
O=S(=O)(c1ccc2nc(N3CCN(c4ccccc4)CC3)ccc2c1)N1CCCCC1	inactive
Fc1cccc2sc(Nc3nc4ccccc4s3)nc12	> 40 µM (inactive)
CCOc1ccc(CCNC(=O)c2cc(-c3ccccc3)c(N3CCOCC3)s2)cc1	4.5 µM
COc1ccc(C(=O)Nc2ccccc2C(=O)Nc2ccccc2)cc1	6.74 µM
CC1=NN(c2ccccc2)C(=O)/C1=C\C=C1/N(C)c2ccccc2C1(C)C	> 40 µM (inactive)
Clc1ccc(-c2ccnc(Oc3cc(Cl)ccc3Cl)n2)cc1	> 40 µM (inactive)
O=C(CSc1ncnc2c1oc1ccccc12)Nc1cccc(Cl)c1	4.59 µM
COc1ccc(-n2nc(C(=O)NCC(=O)Nc3cccc(Cl)c3)c3ccccc3c2=O)cc1	inactive
CCOc1ccccc1NC(=O)CSc1nc(N)c(C#N)cc1C#N	inactive
COc1cc2c3nnc(-c4ccc(F)cc4)c-3cn(Cc3ccccc3)c2cc1OC	inactive
O=C(CSc1nc2ccccc2nc1N1CCCCC1)NCc1ccc(Cl)cc1Cl	7.15 µM
COC(=O)c1ccc(NC(=O)c2cc(Cl)ccc2OC)cc1	inactive
Cc1cc(C)c2cc(C#N)c(SCC(=O)Nc3cc(C)on3)nc2c1	7.32 µM
COc1ccccc1NC(=O)CSc1nc(N)c(C#N)cc1C#N	inactive
Cc1ccc(S(=O)(=O)c2nnn3c2nc(N2CCN(c4ccccn4)CC2)c2ccccc23)cc1	0.876 µM
COc1ccc(/C=C2/SC(=O)N(CCC(=O)Nc3ccccc3)C2=O)cc1OC	9.31 µM

SMILES	IC50
CN1C(=O)C(=Cc2ccc(N3CCOCC3)o2)C(=O)N(C)C1=O	1.36 µM
COc1ccc(C(=O)Nc2scc(-c3ccc(Cl)cc3Cl)c2C(N)=O)cc1	inactive
Cc1cccc2cc(C(c3nnnn3Cc3ccccc3)N3CCN(c4ccccc4)CC3)c(=O)[nH]c12 (centres undefined)	7.94 µM
CCCN1C(=O)c2cccc3c(N4CCCCC4)ccc(c23)C1=O	8.14 µM
COc1ccc(C(=O)Nc2nc3ccc4nc(C)sc4c3s2)cc1	9.47 µM
COc1nc(-c2ccccc2)ccc1-c1noc(-c2cccs2)n1	> 40 µM (inactive)
COC1C(CO)OC(n2c3c(Cl)cccc3c3c4c(c5c6cccc(Cl)c6[nH]c5c32)C(=O)NC4=O)C(O)C1O (centres undefined)	inactive
COc1ccccc1-c1nc(SCC(=O)N(C)c2ccccc2)c2c(=O)n(C)c(=O)n(C)c2n1	3.13 µM
CCCc1cc(=O)oc2cc(C)cc(OCC(=O)Nc3ccc(S(N)(=O)=O)cc3)c12	> 40 µM (inactive)
N#Cc1ccc(Oc2ccc(-c3nc4ccccc4nc3-c3ccccc3)cc2)cc1C#N	4.49 µM
COc1ccc(NC(=O)c2sc3cc(C(F)(F)F)cnc3c2-c2cccs2)cc1	> 40 µM (inactive)
COc1ccc(-c2c(C#Cc3ccsc3)c3cc(-c4ccc5c(c4)OCCO5)ccc3n2C)cc1	> 40 µM (inactive)
Cc1cccc2cc(C#N)c(SCC(=O)N3CCC(C)CC3)nc12	1.26 µM
CCOC(=O)c1c(NC(=O)C2CCCN(S(=O)(=O)c3ccccc3)C2)sc2c1CCCC2 (centres undefined)	3.46 µM
COc1cc(N2N=C(c3ccccc3)CC2c2ccccc2)c(C=O)cc1C=O (centres undefined)	4.6 µM
Cc1c(-c2ccc(F)cc2)nc(N)c(C#N)c1-c1cccs1	1.77 µM
COc1ccc(C2C(C#N)=C(C)NC3=C2C(=O)c2ccccc23)cc1 (centres undefined)	inactive
Cn1c2ccccc2n2c(=O)c(Cl)c(-c3ccccc3)c(C#N)c12	3.4 µM
Cc1ccc(-n2c(SCC(=O)Nc3cccc(S(=O)(=O)NC4=NCCCCC4)c3)nc3ccccc3c2=O)cc1	inactive
CC(NC(=O)c1ccc(-c2cc(C(F)(F)F)ccc2Cl)o1)c1ccccc1 (centres undefined)	> 40 µM (inactive)
O=S(=O)(Cc1cc(NCc2ccccc2)nc(-c2ccncc2)n1)c1ccccc1	> 40 µM (inactive)
Cc1nonc1NC(=O)CSc1nc2ccccc2cc1C#N	inactive
CCOC(=O)c1sc(NC(=O)c2ccc(S(=O)(=O)N(CC)CC)cc2)nc1C	inactive
O=c1ccc(-c2ccc(S(=O)(=O)N3CCN(c4cccc(Cl)c4)CC3)o2)n[nH]1	1.9 µM
CCC(=O)c1cn(CC(=O)Nc2ccc(C)cc2C)c2ccccc12	1.36 µM
Cc1cc(C)c2nc(SCC(=O)NCC3CCCO3)c(C#N)cc2c1 (centres undefined)	inactive

SMILES	IC50
O=C(CSc1nnc(-c2ccncc2)n1-c1ccc(Cl)cc1)c1ccc(Cl)c(Cl)c1	0.278 µM
Cc1nn(C)cc1N1C(=O)c2cccc3c(N)ccc(c23)C1=O	inactive
O=C(CSc1nc2c(c(C(F)(F)F)n1)CCc1ccccc1-2)NCc1ccccc1	4.21 µM
COc1ccc(OC)c(-c2csc(NC(=O)c3ccc4c(c3)OCO4)n2)c1	3.24 µM
N#CC(C#N)=C1C=C2C=C(N3CCOCC3)CCC2CC1 (centres undefined)	4.31 µM
CCOc1ccccc1NC(=O)c1nnn(CC(=O)Nc2cc(C)cc(C)c2)c1N	> 40 µM (inactive)
Cc1cccc(N2CCN(c3ccc4cc(S(=O)(=O)N5CCCCC5)ccc4n3)CC2)c1C	> 40 µM (inactive)
CCC(C)(C)c1ccc(OCCCC[n+]2ccc(C)cc2)c(C(C)(C)CC)c1	> 40 µM (inactive)
Cc1ccc(-n2c(O)c(/C=N/c3ncc(Br)cc3Br)c(=O)[nH]c2=O)cc1	inactive
CCOCCCn1c(=S)[nH]c2cc(C(=O)NCCc3ccccc3)ccc2c1=O	3.56 µM
CSc1ccc(CCNC(=O)c2cc(-c3ccccc3)c(N3CCOCC3)s2)cc1	2.74 µM
CCOC(=O)c1cc(C(=O)OCC)c2cc(Br)ccc2n1	inactive
Cc1cccc(-c2nnn3c2nc(NCCc2ccc(S(N)(=O)=O)cc2)c2ccccc23)c1	> 40 µM (inactive)
Cc1nc(SCC(=O)Nc2ccc(F)cc2)c2oc3ccccc3c2n1	inactive
COc1ccc(-c2cc(-c3ccccc3)nc(SCC(=O)Nc3nccs3)c2C#N)cc1	> 40 µM (inactive)
COc1ccccc1-c1ccc2c(c1)C(C)(Cc1ccccc1C#N)C(=O)N2 (centres undefined)	7.13 µM
CCOC(=O)CSc1nc2cc(OCC)ccc2cc1C#N	6.06 µM
Nc1c2c(nc3ccccc13)CCN(Cc1ccccc1)C2	inactive
O=C(CCCC(=O)OCC(=O)c1cccs1)Nc1ccc(Oc2ccccc2)cc1	inactive
COc1cccc(Nc2nc(-c3ccccc3O)nc3ccccc23)c1	9.08 µM
Cc1sc2nc(SC(C)C)nc(N)c2c1C	3.72 µM
O=C1c2cccc3c(N4CCCCC4)ccc(c23)C(=O)N1c1ccccc1O	5.32 µM
COc1ccc(-c2cc3c(=O)n(CC(=O)Nc4ccc(C(C)=O)cc4)ncn3n2)cc1	inactive
Cc1cccc(NC(=O)CSc2ncnc3c2oc2ccccc23)c1	0.615 µM
COc1ccc2c(C)cc(SCC(=O)NC3CCCCC3)nc2c1	> 40 µM (inactive)
Cc1cccc(N2CCN(c3ccc4cc(S(=O)(=O)N5CCCCC5)ccc4n3)CC2C)c1 (centres undefined)	4.89 µM

SMILES	IC50
COc1ccc(-c2nc3c(c(=O)c4ccccc4n3C)c(=O)n2Cc2ccccc2)cc1	9.23 µM
CCN1C(=O)C(=CC=CN(C)c2ccccc2)SC1=S	inactive
Cc1ccc(OCC(=O)Nc2ccc(O)c(-c3nc4ccccc4o3)c2)cc1	> 40 µM (inactive)
O=C(Nc1nc(-c2cccs2)c(-c2cccs2)s1)C1CCCC1	2.86 µM
Cc1ccc(NC(=O)CSc2nc3ncc(Br)cc3[nH]2)cc1C	> 40 µM (inactive)
O=C(COc1nc2ccccc2nc1N1CCOCC1)N1CCc2ccccc21	> 40 µM (inactive)
CN(C)c1ccc(C=Cc2nccc3ccccc23)cc1	> 40 µM (inactive)
CN(C)c1ccc(N=Nc2ccccc2C(=O)OCC(=O)N2CCCC2)cc1	0.527 µM
CCCCCC[n+]1ccccc1/C=C/c1ccc(N(C)C)cc1	7.24 µM
CC(=O)c1cccc(NC(=O)c2cccc(NC(=O)c3ccco3)c2)c1	1.57 µM
CC1(C)Cc2c(sc3c2c(N)nc(=S)n3Cc2ccccc2)CO1	inactive
Cn1cc(/C=C/c2cc[n+](C)cc2)c2cc(Cl)ccc21	> 40 µM (inactive)
O=C(Nc1nnc(C2CCCCC2)s1)c1ccc(Br)s1	inactive
Cc1ccc2c(c1C)NC(=O)CC(c1ccccc1O)=N2	> 40 µM (inactive)
Cc1c(C(=O)Nc2ccncc2)sc2nc(-c3ccc(F)cc3)cn12	3.76 µM
Cc1ccc(-c2nn(C)c(=O)c3ccccc23)cc1S(=O)(=O)N1CCCC1	> 40 µM (inactive)
CC(=O)c1cc2c(cc1N/C(=N/S(=O)(=O)c1ccccc1)c1ccc(Cl)cc1)OCO2	inactive
Cc1ccc2cc(C#N)c(SCC(=O)NNC(=O)Cc3ccccc3)nc2c1	4.25 µM
Fc1cccc2sc(Nc3nc4c(F)cccc4s3)nc12	4.6 µM
CCOc1ccc(NC(=O)CCSc2ccc3ccccc3n2)cc1	5.15 µM
COc1ccc2cc(C3CC(c4cccs4)=NN3C(C)=O)c(Cl)nc2c1 (centres undefined)	2.88 µM
CCN1C(=O)/C(=C/c2ccc(N3CCCC3)cc2)NC1=S	1.14 µM
Cn1c(=O)c(Nc2ccc(O)cc2)c2c3c(cccc31)C(=O)c1ccccc1-2	6.77 µM
Cc1ccc(-n2c(SCC(=O)NCc3ccco3)nc3sc4c(c3c2=O)CC(C)(C)SC4)cc1	1.93 µM
CC(C)c1nc2sc3c(SCC(N)=O)ncnc3c2c2c1CCC2	3.43 µM
CCOC(=O)C(C)Sc1cc(CS(=O)(=O)c2ccccc2)nc(-c2ccccc2)n1 (centres undefined)	> 40 µM (inactive)
